Measured values: patent US20080221078A1, “Use of a CB1 Antagonist for Treating Side Effects and Negative Symptoms of Schizophrenia” (priority 2005, published 2008)

How the values were obtained:
rats = experiment: MK-801-induced persistent latent inhibition (conditioned emotional response procedure); format: in vivo, rat
Text: When the bottle was not present, the hole was covered by a metal lid. Licks were detected by a Campden Instruments drinkometer. The preexposed to-be-conditioned stimulus was a 10 sec, 80 dB, 2.8 kHz tone produced by a Sonalert module. Shock was supplied through the floor by a Campden Instruments shock generator and shock scrambler set at 0.5 mA and 1 sec duration. Equipment programming and data recording were computer controlled.
Water in the test apparatus was given in addition to the daily ration of 1 h given in the home cages.
Shock immediately followed tone termination. The first tone-shock pairing was given 5 min after the start of the session. After the last pairing, rats were left in the experimental chamber for an additional 5 min.
When the rat completed 75 licks the tone was presented for 5 min. The following times were recorded: Time to first lick, time to complete licks 1-50, time to complete licks 51-75 (before tone onset) and time to complete licks 76-100 (after tone onset). Times to complete licks 76-100 were logarithmically transformed to allow parametric analysis of variance. Longer log times indicate stronger suppression of drinking.

Male Sprague-Dawley rats [1] = experiment: Amphetamine-induced locomotion; format: in vivo, rat
Method: (§1) Animals: Male CD-1 mice (Charles River Laboratories) weighing 20-30 g were used. Male Sprague-Dawley rats (Charles River Laboratories) weighing 250-433 g were used. […] Procedure: A standard automated locomotion assay was employed (see, for example: R. Christopher Pierce and Peter Kalivas. (1997) Locomotor Behavior. In: Current Protocols in Neuroscience, Volume 3, 8.1.1-8.1.8. G. P. Taylor, Editor. New York: John Wiley & Sons, Inc.). Horizontal activity was measured by beam breaks of photocells lining the chamber exterior to the activity boxes. The activity was measured for 60 min during spontaneous locomotion or 90 min for the PCP or amphetamine-induced assays. Example 2 was administered per os (po) with a 1 hr pre-treatment. […] PCP or amphetamine was administered ip or subcutaneous (sc), respectively, with no pre-treatment. When pre-treatment time elapsed for each rodent, the activity cage was transferred from its holding rack and placed into its own locomotion chamber. Independent start time is possible with the recording of activity commencing almost immediately. The computer automatically times out each chamber individually when the session has ended. Drugs: Doses of Example 2 for mice were 0.3, 1, 3, and 10 mg/kg, p.o. The lowest dose was not tested in spontaneous locomotion for rats. The three highest doses of Example 2 were tested against PCP-induced and amphetamine-induced locomotion in mice and rats, respectively. The conventional antipsychotic haloperidol was used in co-administration with Example 2 (1, 3, and 10 mg/kg) at the doses of 0.1 and 0.2 mg/kg in mice to reverse PCP-induced locomotion. Haloperidol was co-administered at the dose of 0.3 mg/kg in rats to reverse amphetamine-induced locomotion.
(§2) Phencyclidine and amphetamine were dissolved in distilled water.

Male Sprague-Dawley rats [2] = experiment: Antipsychotic induced catalepsy (bar test); conditions: for olanzapine-induced catalepsy: olanzapine 10 mg/kg ip
Method: (§3) Animals: Male Sprague-Dawley rats (Charles River Laboratories) weighing 267-457 g were used. The animals were housed under standard laboratory conditions as outlined in the NIH Guide for Care and Use of Laboratory Animals. They were maintained on a 12:12 light/dark cycle with tap water and Lab Diet rodent chow ad libitum. Rats were acclimatized to the experimental room for 60 min prior to injections. Procedure: The test for catalepsy consists of placing an individual animal in a white translucent plastic box (26×20×15 cm) with a wooden dowel mounted horizontally 10 cm from the floor and 4 cm from one end of the box. The floor is covered with approximately 1 cm of bedding material. Test animals are transferred from the vivarium in their home cages to the experimental room and are allowed to acclimatize for 60 mins. Five animals are kept in a cage. The animals are transferred into another cage after treatment. […] 30 mins after the second treatment, animals were placed individually in the white translucent plastic boxes and tested for catalepsy following a one minute acclimatization period. A group of five animals are tested at a time. Each treatment group consists of 10 animals.
(§4) At the end of the one minute acclimation period, each animal is gently grasped around the shoulders and under the forepaws, and gently placed on the wooden dowel. The amount of time each rat spends with at least one forepaw on the bar determined for a maximum period of 180 seconds. This is repeated three times.
(§5) Haloperidol was used at the dose of 1 mg/kg.
(§6) Haloperidol was dissolved in distilled water via dilution of a 5 mg/ml stock solution in distilled water. Olanzapine was dissolved in three drops of HCl prior to the addition of distilled water to full volume.

[3] = Antipsychotic induced catalepsy (bar test); conditions: male, Sprague-Dawley, rat, in vivo, intraperitoneal
Method: as §3, §4, §5, §6

[4] = tested on: Female Wistar rats on high fat diet; experiment: Antipsychotic (olanzapine) induced weight gain
Text: Animals: Female Wistar rats on high fat diet were used in this Example.

Male Sprague Dawley rats = experiment: Holeboard test (working memory performance); format: in vivo, rat
Text: Similarly, a working memory performance in a rat hole board model has been used to measure various cognition deficits. The hole board task is a well-known and widely used assay to measure working and reference memory in rodents. This model utilizes a board with 8 holes, each baited with a food reward, thus taking advantage of the rodent's natural propensity to forage for food. In a modified version, it has now been able to assess improvements in working memory performance without the use of amnestic agents. Male Sprague Dawley rats are allowed to find and consume 4 of the 8 rewards and then removed to the home cage for 2 minutes. They are then returned and allowed to find and consume the remaining 4 rewards. Any returns to holes already visited are considered working memory errors.
Animals: Male Sprague Dawley rats (Charles River) were housed on a 12 hour light/dark cycle, with lights on at 06:00. Rats were maintained at 80% of their normal body weight, with average starting weights at 200-220 grams. Rats were acclimated to the testing chamber (Med-Associates, Inc. hole board in a ventilated, sound-attenuating cubicle) for four 10-minute trials over a two-day period 24 hours prior to drug treatments. The testing chamber contains eight holes, each of which is baited with a food reward (cocoa puff). Procedure: Each experiment was carried over two-three days, with a 3 day (experiment 1), 4 day (experiment 2), and 3 day (experiment 3) washout in between. Thirty two animals were used for each experiment, with each animal pseudo-randomly assigned to treatment groups such that each animal received two of the four-five treatments, with an even distribution of all possible treatment-treatment combinations. There were a total of 16 animals per treatment group. On test days, rats were injected intraperitoneally (i.p.) with N-{1-[bis(4-chlorophenyl)methyl]azetidin-3-yl}-N-(3,5-difluorophenyl)methylsulfonamide (Example 2) (Exp 1: 0.3, 1, or 3 mg/kg; Exp 2: 1, 3 or 10 mg/kg) or vehicle (distilled water with 1% tween). For Exp 3, rats were injected i.p. with risperidone followed by Example 2 (Exp 3: 0.010, 0.10, or 1.0 mg/kg with 3 mg/kg Example 2) or vehicle (0.9% NaCl with 1% tween). The rats were then placed in the test chamber 60 minutes later. After consuming 4 food rewards, the rats were removed from the chamber for 2 minutes and returned to their home cage. They were then returned to the chamber and allowed to retrieve and finish the remaining four rewards, or for a total of 10 minutes. […] The number of visits to holes that they have already visited were noted. Drugs: Doses of Example 2 were 0.3, 1 and 3 mg/kg (experiment 1) and 1, 3 and 10 mg/kg (experiment 2). Example 2 was put into suspension with distilled water (exp 1 & 2) or 0.9% NaCl (exp 3), with the addition of tween 80. Doses of risperidone (antipsychotic, Sigma) were 0.010, 0.10, and 1.0 mg/kg (experiment 3). risperidone was solubilized in 0.9% NaCl with the addition of 1% tween 80,

Male CD-1 mice = experiment: PCP-induced locomotion; format: in vivo, mouse
Method: as §1, §2

NCC(=O)O [glycine, Glycine]
MK-801-induced abnormally persistent LI (rats; glycine 0.8 g/kg i.p., 30 minutes prior to conditioning): reversed

O=C(CCCN1CCC(O)(c2ccc(Cl)cc2)CC1)c1ccc(F)cc1 [haloperidol, reference compound]
reversal of locomotor hyperactivity (Male Sprague-Dawley rats [1]; haloperidol 0.3 mg/kg ip): highly significant reversal | induction of catalepsy compared to vehicle treated animals (Male Sprague-Dawley rats [2]; haloperidol 1 and 3 mg/kg): significantly induces catalepsy | ED50 at 30 min [3]: 0.64 mg/kg

N-{1-[Bis(4-chlorophenyl)methyl]azetidin-3-yl}-N-(3,5-difluorophenyl)methylsulfonamide [Example 2]
reversal of locomotor hyperactivity induced by d-AMPH (Male Sprague-Dawley rats [1]; rats, Example 2 alone 1, 3, and 10 mg/kg p.o.): no significant reversal | effect of co-treatment with haloperidol on amphetamine-induced locomotion (Male Sprague-Dawley rats [1]; rats, haloperidol 0.3 mg/kg ip with Example 2): yielded the same effects whether or not Example 2 was present or absent | effect of co-treatment with olanzapine on amphetamine-induced locomotion (Male Sprague-Dawley rats [1]; rats, olanzapine 1 and 3 mg/kg ip with Example 2): yielded the same effects whether or not Example 2 was present or absent | weight gain vs. saline controls ([4]; 10 mg/kg Example 2 i.p. with olanzapine 3 mg/kg i.p.): not significant from saline controls | weight vs. saline ([4]; Example 2 alone 10 mg/kg i.p.): no significant effect | weight gain elicited by olanzapine ([4]; co-administration of Example 2 1, 3, and 10 mg/kg i.p. with olanzapine 3 mg/kg i.p.): dose dependent attenuation | olanzapine-induced catalepsy (Male Sprague-Dawley rats [2]; Example 2 3 mg/kg orally): significantly reversed | haloperidol-induced catalepsy (Male Sprague-Dawley rats [2]; Example 2 10 mg/kg orally, haloperidol 1 mg/kg ip): significantly reversed | olanzapine-induced catalepsy (Male Sprague-Dawley rats [2]; Example 2 10 mg/kg orally): significantly reversed | number of working memory errors compared to vehicle treated animals (Male Sprague Dawley rats; Experiment 1, 0.3 mg/kg i.p., after 2 minute delay): but not the 0.3 or 1 mg/kg doses | number of working memory errors compared to vehicle treated animals (Male Sprague Dawley rats; Experiment 1, 1 mg/kg i.p., after 2 minute delay): but not the 0.3 or 1 mg/kg doses | number of working memory errors compared to vehicle treated animals (Male Sprague Dawley rats; Experiment 1, 3 mg/kg i.p., after 2 minute delay, p<0.05): significant decrease | number of working memory errors compared to vehicle treated animals (Male Sprague Dawley rats; Experiment 2, 3 mg/kg i.p., after 2 minute delay, p<0.05): significant decrease | number of working memory errors compared to vehicle treated animals (Male Sprague Dawley rats; Experiment 2, 10 mg/kg i.p., after 2 minute delay, p<0.05): significant decrease | number of working memory errors compared to vehicle treated animals (Male Sprague Dawley rats; Experiment 3, 3 mg/kg Example 2 in combination with 0.10 mg/kg risperidone i.p., p<0.05): significant decrease | number of working memory errors compared to vehicle treated animals (Male Sprague Dawley rats; Experiment 3, 3 mg/kg i.p. Example 2 alone, p<0.05): significant decrease | minimum effective dose for improvement in working memory performance (Male Sprague Dawley rats; i.p.): 3 mg/kg | MK801-induced persistent latent inhibition (rats; 1, 3 and 10 mg/kg i.p., 60 minutes prior to pre-exposure and conditioning): reversed | reversal of locomotor hyperactivity induced by PCP (Male CD-1 mice; Example 2 alone 1, 3, and 10 mg/kg p.o.): no significant reversal | effect of co-treatment with haloperidol on PCP-induced locomotion (Male CD-1 mice; haloperidol 0.1 and 0.2 mg/kg ip with Example 2 1, 3, 10 mg/kg p.o.): yielded the same effects whether or not Example 2 was present or absent | effect of co-treatment with olanzapine on PCP-induced locomotion (Male CD-1 mice; olanzapine 0.03 and 0.3 mg/kg ip with Example 2 1, 3, 10 mg/kg p.o.): yielded the same effects whether or not Example 2 was present or absent

C[C@]12N[C@H](Cc3ccccc31)c1ccccc12 [MK-801, dizocilpine]
latent inhibition (LI) with 40 preexposures and 5 conditioning trials (rats; MK-801 0.05 mg/kg i.p., 30 minutes before conditioning): showed LI in spite of extended conditioning
